Test results as given in patent publication US8247211B2, “Glycopeptide antibiotics” (American Cyanamid Company, priority 2001, dated 2012).
Converted amounts (≈) assume the structure as drawn.

What was measured:
Experiment in all cases: In vitro antibacterial evaluation: minimum inhibitory concentration (MIC), broth dilution method
Format in all cases: cell-based
Enterococcus sp. = tested on: Enterococcus sp.
In short: (§1)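 Following NCCLS approved standard M7-A2, compounds are serially diluted from 64 to 0.06 μg/mL in Muller-Hinton II […] and inoculated at 5×10^5 CFU/mL; the MIC is the minimum concentration at which growth is inhibited.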

Streptococcus sp. = tested on: Streptococcus sp.
In short: as §1

Staphylococcus sp. = details: broth dilution, 18 hours at 35° C.
In short: as §1

Escherichia coli = tested on: Escherichia coli
In short: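 First, organisms are seeded at 5×10^5 CFU/mL into Muller-Hinton II […]. Next, antibiotic is applied across 64-0.06 μg/mL by broth dilution (NCCLS M7-A2). Finally, the lowest inhibitory concentration is recorded as MIC.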

[1] = broth dilution, inoculum 5×10^5 CFU/mL, 18 hours at 35° C.

CC(c1ccccc1)C1NC(=O)CNC(=O)C(CO)NC(=O)C(C(O)C2CNC(=N)N2C2OC(CO)C(O)C(O)C2O)NC(=O)C(C(O)C2CNC(=N)N2)NC(=O)C(Cc2ccc(OC3OC(CO)C(OC4OC5COC(c6ccc(C=Cc7ccccc7)cc6)OC5C(O)C4O)C(O)C3O)cc2)NC1=O (stereo not drawn) [Example 172]
MIC Enterococcus avium (GC 4558) (Enterococcus sp.; [1]): 4 µg/mL (≈ 2.69 µM)
MIC Enterococcus faecalis (ATCC 29212) (Enterococcus sp.; [1]): 8 µg/mL (≈ 5.39 µM)
MIC Enterococcus faecalis (GC 2242) (Enterococcus sp.; [1]): 4 µg/mL (≈ 2.69 µM)
MIC Enterococcus faecalis (GC 2691) (Enterococcus sp.; [1]): 4 µg/mL (≈ 2.69 µM)
MIC Enterococcus faecalis (GC 3059) (Enterococcus sp.; [1]): 8 µg/mL (≈ 5.39 µM)
MIC Enterococcus faecalis (GC 4552) (Enterococcus sp.; [1]): 8 µg/mL (≈ 5.39 µM)
MIC Enterococcus faecalis (GC 4553) (Enterococcus sp.; [1]): 4 µg/mL (≈ 2.69 µM)
MIC Enterococcus faecalis (GC 4554) (Enterococcus sp.; [1]): 4 µg/mL (≈ 2.69 µM)
MIC Enterococcus faecalis (GC 6189) (Enterococcus sp.; [1]): 2 µg/mL (≈ 1.35 µM)
MIC Enterococcus faecium (GC 2243) (Enterococcus sp.; [1]): 8 µg/mL (≈ 5.39 µM)
MIC Enterococcus faecium (GC 4556) (Enterococcus sp.; [1]): 8 µg/mL (≈ 5.39 µM)
MIC Enterococcus faecium (GC 4557) (Enterococcus sp.; [1]): 8 µg/mL (≈ 5.39 µM)
MIC Enterococcus faecalis (ATCC 29212) (Enterococcus sp.; strain ATCC 29212): 8 µg/mL (≈ 5.39 µM)
MIC Enterococcus faecalis (GC 2242) (Enterococcus sp.; strain GC 2242): 4 µg/mL (≈ 2.69 µM)
MIC Enterococcus faecium (GC 2243) (Enterococcus sp.; strain GC 2243): 8 µg/mL (≈ 5.39 µM)
MIC Enterococcus faecalis (GC 2691) (Enterococcus sp.; strain GC 2691): 4 µg/mL (≈ 2.69 µM)
MIC Enterococcus faecalis (GC 3059) (Enterococcus sp.; strain GC 3059): 8 µg/mL (≈ 5.39 µM)
MIC Enterococcus faecalis (GC 4552) (Enterococcus sp.; strain GC 4552): 8 µg/mL (≈ 5.39 µM)
MIC Enterococcus faecalis (GC 4553) (Enterococcus sp.; strain GC 4553): 4 µg/mL (≈ 2.69 µM)
MIC Enterococcus faecalis (GC 4554) (Enterococcus sp.; strain GC 4554): 4 µg/mL (≈ 2.69 µM)
MIC Enterococcus faecium (GC 4556) (Enterococcus sp.; strain GC 4556): 8 µg/mL (≈ 5.39 µM)
MIC Enterococcus faecium (GC 4557) (Enterococcus sp.; strain GC 4557): 8 µg/mL (≈ 5.39 µM)
MIC Enterococcus avium (GC 4558) (Enterococcus sp.; strain GC 4558): 4 µg/mL (≈ 2.69 µM)
MIC Enterococcus faecalis (GC 6189) (Enterococcus sp.; strain GC 6189): 2 µg/mL (≈ 1.35 µM)
MIC Streptococcus agalactiae (GC 4564) (Streptococcus sp.; [1]): <0.06 µg/mL
MIC Streptococcus pneumoniae (ATCC 6301) (Streptococcus sp.; [1]): <0.06 µg/mL
MIC Streptococcus pneumoniae (GC 1894) (Streptococcus sp.; [1]): <0.06 µg/mL
MIC Streptococcus pneumoniae (GC 4565) (Streptococcus sp.; [1]): <0.06 µg/mL
MIC Streptococcus pyogenes (GC 4563) (Streptococcus sp.; [1]): 0.12 µg/mL (≈ 0.0808 µM)
MIC Streptococcus pneumoniae (ATCC 6301) (Streptococcus sp.; strain ATCC 6301): <0.06 µg/mL
MIC Streptococcus pneumoniae (GC 1894) (Streptococcus sp.; strain GC 1894): <0.06 µg/mL
MIC Streptococcus pyogenes (GC 4563) (Streptococcus sp.; strain GC 4563): 0.12 µg/mL (≈ 0.0808 µM)
MIC Streptococcus agalactiae (GC 4564) (Streptococcus sp.; strain GC 4564): <0.06 µg/mL
MIC Streptococcus pneumoniae (GC 4565) (Streptococcus sp.; strain GC 4565): <0.06 µg/mL
MIC Coagulase Negative Staphylococcus (GC 4547) (Staphylococcus sp.; 5×10^5 CFU/mL): 8 µg/mL (≈ 5.39 µM)
MIC Coagulase Negative Staphylococcus (GC 4548) (Staphylococcus sp.; 5×10^5 CFU/mL): 2 µg/mL (≈ 1.35 µM)
MIC Coagulase Negative Staphylococcus (GC 4549) (Staphylococcus sp.; 5×10^5 CFU/mL): 2 µg/mL (≈ 1.35 µM)
MIC Coagulase Negative Staphylococcus (GC 4551) (Staphylococcus sp.; 5×10^5 CFU/mL): 4 µg/mL (≈ 2.69 µM)
MIC Coagulase Negative Staphylococcus (GC 6257) (Staphylococcus sp.; 5×10^5 CFU/mL): 2 µg/mL (≈ 1.35 µM)
MIC Staphylococcus aureus (ATCC 29213) (Staphylococcus sp.; 5×10^5 CFU/mL): 4 µg/mL (≈ 2.69 µM)
MIC Staphylococcus aureus (GC 1131) (Staphylococcus sp.; 5×10^5 CFU/mL): 8 µg/mL (≈ 5.39 µM)
MIC Staphylococcus aureus (GC 3051) (Staphylococcus sp.; 5×10^5 CFU/mL): 4 µg/mL (≈ 2.69 µM)
MIC Staphylococcus aureus (GC 3053) (Staphylococcus sp.; 5×10^5 CFU/mL): 4 µg/mL (≈ 2.69 µM)
MIC Staphylococcus aureus (GC 4541) (Staphylococcus sp.; 5×10^5 CFU/mL): 4 µg/mL (≈ 2.69 µM)
MIC Staphylococcus aureus (GC 4542) (Staphylococcus sp.; 5×10^5 CFU/mL): 2 µg/mL (≈ 1.35 µM)
MIC Staphylococcus aureus (GC 4544) (Staphylococcus sp.; 5×10^5 CFU/mL): 8 µg/mL (≈ 5.39 µM)
MIC Staphylococcus aureus (GC 4545) (Staphylococcus sp.; 5×10^5 CFU/mL): 4 µg/mL (≈ 2.69 µM)
MIC Staphylococcus aureus-SMITH (GC 4543) (Staphylococcus sp.; 5×10^5 CFU/mL): 8 µg/mL (≈ 5.39 µM)
MIC Staphylococcus haemolyticus (GC 4546) (Staphylococcus sp.; 5×10^5 CFU/mL): 8 µg/mL (≈ 5.39 µM)
MIC Staphylococcus aureus (ATCC 29213) (Staphylococcus sp.; strain ATCC 29213): 4 µg/mL (≈ 2.69 µM)
MIC Staphylococcus aureus (GC 1131) (Staphylococcus sp.; strain GC 1131): 8 µg/mL (≈ 5.39 µM)
MIC Staphylococcus aureus (GC 3051) (Staphylococcus sp.; strain GC 3051): 4 µg/mL (≈ 2.69 µM)
MIC Staphylococcus aureus (GC 3053) (Staphylococcus sp.; strain GC 3053): 4 µg/mL (≈ 2.69 µM)
MIC Staphylococcus aureus (GC 4541) (Staphylococcus sp.; strain GC 4541): 4 µg/mL (≈ 2.69 µM)
MIC Staphylococcus aureus (GC 4542) (Staphylococcus sp.; strain GC 4542): 2 µg/mL (≈ 1.35 µM)
MIC Staphylococcus aureus (GC 4544) (Staphylococcus sp.; strain GC 4544): 8 µg/mL (≈ 5.39 µM)
MIC Staphylococcus aureus (GC 4545) (Staphylococcus sp.; strain GC 4545): 4 µg/mL (≈ 2.69 µM)
MIC Escherichia coli (ATCC 25922) (Escherichia coli; strain ATCC 25922): >64 µg/mL
MIC Escherichia coli (GC 4559) (Escherichia coli; strain GC 4559): >64 µg/mL
MIC Escherichi coli (GC 4560) (Escherichia coli; strain GC 4560): 2 µg/mL (≈ 1.35 µM)
